Reference: ChEMBL document CHEMBL1201862, “PubChem BioAssay data set” (2004)
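Growth conditions: 96-well plates. Treatment: test compound, 48 hours, 5 concentrations. Analysis: linear interpolation between bracketing concentrations; unreached endpoints set to highest concentration. GI50: concentration for 50% inhibition of growth.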 Activity calls are given as the source filed them. Cut-off read from the data, not from the text of the source: active = GI50 up to about 1.1 µM and inactive = higher.

How the values were obtained:
Assay in all cases: inhibition of tumour cell growth, NCI panel, 48 h
[1] = tested on: Malme-3M
[2] = tested on: A549
[3] = tested on: NCI-H522
[4] = tested on: COLO 205
[5] = tested on: A498
[6] = tested on: DU-145
[7] = tested on: HL-60
[8] = tested on: HCC 2998
[9] = tested on: MDA-MB-435
[10] = tested on: UO-31
[11] = tested on: SK-MEL-28
[12] = tested on: MDA-MB-231
[13] = tested on: Hs-578T
[14] = tested on: HOP-62
[15] = tested on: U-251
[16] = tested on: HOP-92
[17] = tested on: NCI-H460
[18] = tested on: UACC-257
[19] = tested on: SF-539
[20] = tested on: DMS-273

Structure (SMILES) | GI50 [1] | GI50 [2] | GI50 [3] | GI50 [4] | GI50 [5] | GI50 [6] | GI50 [7] | GI50 [8] | GI50 [9] | GI50 [10] | GI50 [11] | GI50 [12] | GI50 [13] | GI50 [14] | GI50 [15] | GI50 [16] | GI50 [17] | GI50 [18] | GI50 [19] | GI50 [20]
c1cc(CSSCc2ccncc2)ccn1 | 24.9 µM (inactive) | 27.3 µM (inactive) | 12.9 µM (inactive) | 8.11 µM (inactive) | 42.7 µM (inactive) | 28.9 µM (inactive) | 13.7 µM (inactive) | 22.9 µM (inactive) | 20.6 µM (inactive) | 8.99 µM (inactive) | 64 µM (inactive) | 25.9 µM (inactive) | 29.2 µM (inactive) | 46.2 µM (inactive) | 23.3 µM (inactive) | 25.9 µM (inactive) | 23.7 µM (inactive) | 15.9 µM (inactive) | 8.02 µM (inactive) | –
[N-]=[N+]=NC(c1cn(C2CC(O)C(CO)O2)c(=O)[nH]c1=O)C(I)I (stereo not drawn) | > 100 µM (inactive) | > 100 µM (inactive) | – | > 100 µM (inactive) | > 100 µM (inactive) | – | > 100 µM (inactive) | > 100 µM (inactive) | – | > 100 µM (inactive) | > 100 µM (inactive) | – | – | > 100 µM (inactive) | > 100 µM (inactive) | > 100 µM (inactive) | > 100 µM (inactive) | > 100 µM (inactive) | > 100 µM (inactive) | > 100 µM (inactive)
Clc1ccc(-c2nn3c(COc4cccc(OCc5nnc6sc(-c7ccc(Cl)cc7)nn56)c4)nnc3s2)cc1 | 19.2 µM (inactive) | 25.8 µM (inactive) | 22.8 µM (inactive) | 29.2 µM (inactive) | 15.7 µM (inactive) | 25.4 µM (inactive) | 21.5 µM (inactive) | 32.1 µM (inactive) | 19.4 µM (inactive) | 19.5 µM (inactive) | 7.78 µM (inactive) | 21.2 µM (inactive) | 59 µM (inactive) | 56.6 µM (inactive) | 24.3 µM (inactive) | 30.1 µM (inactive) | 31 µM (inactive) | 26.1 µM (inactive) | 26.9 µM (inactive) | –
C/C(=N\NC(=O)c1ccccc1O)C1=CNc2ccccc2S1 | 3.1 µM (inactive) | 3.63 µM (inactive) | 3.34 µM (inactive) | – | 3.8 µM (inactive) | – | 3.54 µM (inactive) | 2.98 µM (inactive) | – | 2.14 µM (inactive) | 9.48 µM (inactive) | – | – | 4.59 µM (inactive) | 5.87 µM (inactive) | – | 4 µM (inactive) | 3.1 µM (inactive) | 2.4 µM (inactive) | 3.1 µM (inactive)
COc1ccc(N2C(=O)c3c(c4[nH]c5ccccc5c4c4ccc(C(C)(C)C)cc34)C2=O)cc1 | 83 µM (inactive) | 47.1 µM (inactive) | 33.2 µM (inactive) | 37.3 µM (inactive) | 40.5 µM (inactive) | – | – | > 100 µM (inactive) | – | 97.1 µM (inactive) | 89.1 µM (inactive) | – | – | 42.8 µM (inactive) | 22.8 µM (inactive) | 14.7 µM (inactive) | 40.4 µM (inactive) | > 100 µM (inactive) | > 100 µM (inactive) | 41.3 µM (inactive)
Cc1ccc(S(=O)(=O)NNS(C)(=O)=O)cc1 | > 100 µM (inactive) | > 100 µM (inactive) | > 100 µM (inactive) | > 100 µM (inactive) | – | – | – | > 100 µM (inactive) | – | > 100 µM (inactive) | – | – | – | > 100 µM (inactive) | > 100 µM (inactive) | – | > 100 µM (inactive) | > 100 µM (inactive) | > 100 µM (inactive) | > 100 µM (inactive)
CCOc1ccccc1NC(=O)CCc1n[nH]c(=S)o1 | > 100 µM (inactive) | > 100 µM (inactive) | > 100 µM (inactive) | – | – | – | > 100 µM (inactive) | – | – | 63.4 µM (inactive) | > 100 µM (inactive) | – | – | – | > 100 µM (inactive) | > 100 µM (inactive) | – | > 100 µM (inactive) | > 100 µM (inactive) | > 100 µM (inactive)
Cc1cccc(-c2nnc(S)[nH]2)c1 | > 100 µM (inactive) | > 100 µM (inactive) | > 100 µM (inactive) | > 100 µM (inactive) | > 100 µM (inactive) | – | > 100 µM (inactive) | > 100 µM (inactive) | – | > 100 µM (inactive) | > 100 µM (inactive) | – | – | > 100 µM (inactive) | > 100 µM (inactive) | > 100 µM (inactive) | > 100 µM (inactive) | > 100 µM (inactive) | > 100 µM (inactive) | > 100 µM (inactive)
O=c1[nH]c2c(nc1NC13CC4CC(CC(C4)C1)C3)c(=O)oc1ccccc12 | > 100 µM (inactive) | 34 µM (inactive) | 61.1 µM (inactive) | > 100 µM (inactive) | – | – | > 100 µM (inactive) | > 100 µM (inactive) | – | > 100 µM (inactive) | > 100 µM (inactive) | – | – | 50.1 µM (inactive) | 16.6 µM (inactive) | > 100 µM (inactive) | 70.3 µM (inactive) | > 100 µM (inactive) | 14.9 µM (inactive) | 62.1 µM (inactive)
CCOC(=O)C1Oc2ccc([N+](=O)[O-])cc2C1(C)O (stereo not drawn) | > 100 µM (inactive) | > 100 µM (inactive) | > 100 µM (inactive) | > 100 µM (inactive) | > 100 µM (inactive) | – | > 100 µM (inactive) | > 100 µM (inactive) | – | > 100 µM (inactive) | > 100 µM (inactive) | – | – | > 100 µM (inactive) | > 100 µM (inactive) | > 100 µM (inactive) | > 100 µM (inactive) | > 100 µM (inactive) | > 100 µM (inactive) | > 100 µM (inactive)
CCOC(OC1=C(C#N)CCC1)C(CC)[Se]c1ccccc1 (stereo not drawn) | 11.4 µM (inactive) | 63.1 µM (inactive) | 13.8 µM (inactive) | 19.5 µM (inactive) | 80.4 µM (inactive) | – | 12.4 µM (inactive) | 13.6 µM (inactive) | – | 24.2 µM (inactive) | 40.9 µM (inactive) | – | – | > 100 µM (inactive) | 10.3 µM (inactive) | 23.4 µM (inactive) | 36.4 µM (inactive) | 80.9 µM (inactive) | 19 µM (inactive) | 11.2 µM (inactive)
CC(=O)OCC1OC(n2c(=S)n(-c3ccccc3)c(=O)c3cc(Br)ccc32)C(OC(C)=O)C(OC(C)=O)C1OC(C)=O (stereo not drawn) | – | > 100 µM (inactive) | > 100 µM (inactive) | > 100 µM (inactive) | > 100 µM (inactive) | – | > 100 µM (inactive) | > 100 µM (inactive) | – | > 100 µM (inactive) | > 100 µM (inactive) | – | – | > 100 µM (inactive) | > 100 µM (inactive) | – | > 100 µM (inactive) | > 100 µM (inactive) | > 100 µM (inactive) | > 100 µM (inactive)
Cc1noc(C)c1C1=CCCCc2ccccc21 | 97.5 µM (inactive) | > 100 µM (inactive) | 36.3 µM (inactive) | > 100 µM (inactive) | – | – | 21.7 µM (inactive) | > 100 µM (inactive) | – | > 100 µM (inactive) | > 100 µM (inactive) | – | – | > 100 µM (inactive) | > 100 µM (inactive) | 26.5 µM (inactive) | > 100 µM (inactive) | > 100 µM (inactive) | > 100 µM (inactive) | > 100 µM (inactive)
CC1=Nn2c(nnc2-c2ccccc2Cl)NC(C)(C)C1 | – | > 100 µM (inactive) | 23.8 µM (inactive) | 54.2 µM (inactive) | – | – | 50.9 µM (inactive) | > 100 µM (inactive) | – | > 100 µM (inactive) | > 100 µM (inactive) | – | – | > 100 µM (inactive) | 81.7 µM (inactive) | > 100 µM (inactive) | > 100 µM (inactive) | – | > 100 µM (inactive) | > 100 µM (inactive)
C=C1CCC(CC[C@@H]2CC[C@]3(OC2)O[C@@]2(O)CC[C@]3(C)OC2(C)C)C(C)(C)[C@H]1C/C=C1/C(=O)OC[C@@H]1O (stereo partly drawn) | 2.39 µM (inactive) | 3.55 µM (inactive) | 1.29 µM (inactive) | 5.43 µM (inactive) | 5.93 µM (inactive) | 4.83 µM (inactive) | 0.685 µM (active) | 4.16 µM (inactive) | 1.86 µM (inactive) | 4.91 µM (inactive) | 1.59 µM (inactive) | 1.69 µM (inactive) | 4.2 µM (inactive) | 6.1 µM (inactive) | 2 µM (inactive) | 2.02 µM (inactive) | 3.04 µM (inactive) | 0.363 µM (active) | 3.17 µM (inactive) | –
C=CC/C=C/C/C=C/CCCCCCCc1cccc(O)c1C(=O)O | 47.6 µM (inactive) | 33 µM (inactive) | 39.5 µM (inactive) | > 100 µM (inactive) | – | – | > 100 µM (inactive) | 58.7 µM (inactive) | – | 25.2 µM (inactive) | 32.7 µM (inactive) | – | – | 14.4 µM (inactive) | 19.7 µM (inactive) | 23.7 µM (inactive) | 36.1 µM (inactive) | 73.3 µM (inactive) | 69.5 µM (inactive) | 45.4 µM (inactive)
COc1ccc(-c2oc3cc(OC)c(OC)c(OC)c3c(=O)c2OC)cc1OC [HEXAMETHOXYFLAVONE] | > 100 µM (inactive) | > 100 µM (inactive) | > 100 µM (inactive) | > 100 µM (inactive) | > 100 µM (inactive) | > 100 µM (inactive) | 20.8 µM (inactive) | > 100 µM (inactive) | > 100 µM (inactive) | 79.1 µM (inactive) | > 100 µM (inactive) | > 100 µM (inactive) | > 100 µM (inactive) | > 100 µM (inactive) | > 100 µM (inactive) | 16.4 µM (inactive) | > 100 µM (inactive) | > 100 µM (inactive) | > 100 µM (inactive) | –
